# Data: ChEMBL document CHEMBL5500403, “Discovery of a Double-Stapled Short Peptide as a Long-Acting HIV-1 Inactivator with Potential for Oral Bioavailability” (J Med Chem, 2024)
# Bridge positions count the residues as written; N and C are the ends. Square brackets hold non-standard residues; d marks the D form. Peptide text beside a SMILES is read from it. S5 = C=CCCC[C@](C)(N)C(=O)O
# How the values were obtained:
# [1] = Cytotoxicity against human MT2 cells; type: toxicity, cell-based
# [2] = test system: Human immunodeficiency virus 1; assay: Antiviral activity against HIV-1 IIIB infected in human MT2 cells assessed as inhibition of viral growth pretreated with virus for 30 mins followed by infection with cells incubated for 72 hrs by ELISA; type: functional, organism-based; conditions: Human immunodeficiency virus 1, IIIB
# [3] = Selectivity index, ratio of CC50 for cytotoxicity against human MT2 cells to IC50 for antiviral activity against HIV-1 IIIB infected in human MT2 cells; type: toxicity, cell-based; conditions: read-out: Ratio CC50/IC50
# [4] = Elimination half life in Sprague-Dawley rat at 1 mg/kg,iv administration measured upto 9 days by LC-MS/MS analysis; type: ADME, organism-based; conditions: in vivo, time < 9 day, read-out: beta t1/2 (converted)
# [5] = molecular target: chymotrypsin (Homo sapiens, UniProt P17538+P40313+Q6GPI1+Q99895); assay: Proteolytic stability assessed as Chymotrypsin (unknown origin) mediated compound degradation by measuring parent compound remaining incubated for 2 hrs by LC-MS/MS analysis; type: ADME, protein assay; conditions: read-out: Stability
# [6] = Proteolytic stability assessed as Pepsin (unknown origin) mediated compound degradation incubated for 4 hrs by LC-MS/MS analysis; type: ADME; conditions: human
# [7] = Biodistribution in Sprague-Dawley rat brain at 1 mg/kg,iv administration measured after 5 mins by LC-MS/MS analysis; type: ADME, organism-based; conditions: in vivo
# [8] = test system: Human immunodeficiency virus 1; assay: Antiviral activity against HIV-1 IIIB assessed as reduction in viral growth by measuring p24 antigen level incubated for 2 hrs by ELISA; type: functional, organism-based; conditions: Human immunodeficiency virus 1, IIIB
# [9] = test system: Human immunodeficiency virus 1; assay: Antiviral activity against T20-resistant HIV-1 NL4-3 harboring […] V38E and N42S mutant infected in human MT2 cells assessed as inhibition of viral growth pretreated with virus for 30 mins followed by infection with cells incubated for 72 hrs by ELISA; type: functional, organism-based
# [10] = Stability in rat liver assessed as parent compound remaining at 1 ug/ml incubated for 1 hr by LC-MS/MS analysis; type: ADME, tissue-based; conditions: at 1 µg/mL, read-out: Stability
# [11] = test system: Human immunodeficiency virus 1; assay: Antiviral activity against T20-resistant HIV-1 NL4-3 harboring […] N42T and N43K mutant assessed as reduction in viral growth by measuring p24 antigen level incubated for 2 hrs by ELISA; type: functional, organism-based
# [12] = Total clearance in Sprague-Dawley rat at 1 mg/kg,iv administration measured upto 9 days by LC-MS/MS analysis; type: ADME, organism-based; conditions: in vivo, time < 9 day
# [13] = test system: Human immunodeficiency virus 1; assay: Antiviral activity against T20-resistant HIV-1 NL4-3 harboring […] V38E and N42S mutant assessed as reduction in viral growth by measuring p24 antigen level incubated for 2 hrs by ELISA; type: functional, organism-based
# [14] = Drug concentration in Sprague-Dawley rat plasma at 50 mg/kg,po administrated for 5 days by LC-MS/MS analysis; type: ADME, organism-based; conditions: in vivo, 120 h, time 5 day
# [15] = test system: Human immunodeficiency virus 1; assay: Antiviral activity against T20-resistant HIV-1 NL4-3 harboring […] N38A and N42T mutant assessed as reduction in viral growth by measuring p24 antigen level incubated for 2 hrs by ELISA; type: functional, organism-based
# [16] = AUClast in Sprague-Dawley rat at 1 mg/kg,iv administration measured upto 9 days by LC-MS/MS analysis; type: ADME, organism-based; conditions: in vivo, time < 9 day
# [17] = Volume of distribution at steady state in Sprague-Dawley rat at 1 mg/kg,iv administration measured upto 9 days by LC-MS/MS analysis; type: ADME, organism-based; conditions: in vivo, time < 9 day, read-out: Vdss
# [18] = test system: Human immunodeficiency virus 1; assay: Antiviral activity against T20-resistant HIV-1 NL4-3 harboring […] N42T and N43K mutant infected in human MT2 cells assessed as inhibition of viral growth pretreated with virus for 30 mins followed by infection with cells incubated for 72 hrs by ELISA; type: functional, organism-based
# [19] = test system: Human immunodeficiency virus 1; assay: Antiviral activity against HIV-1 clinical isolate X4-89BZ167 assessed as reduction in viral growth by measuring p24 antigen level incubated for 2 hrs by ELISA; type: functional, organism-based; conditions: Human immunodeficiency virus 1, clinical isolate X4-89BZ167, 2 h
# [20] = test system: Human immunodeficiency virus 1; assay: Antiviral activity against T20-resistant HIV-1 NL4-3 harboring […] N38A and N42T mutant infected in human MT2 cells assessed as inhibition of viral growth pretreated with virus for 30 mins followed by infection with cells incubated for 72 hrs by ELISA; type: functional, organism-based
# [21] = test system: Human immunodeficiency virus 1; assay: Antiviral activity against HIV-1 Bal-R5 assessed as reduction in viral growth by measuring p24 antigen level incubated for 2 hrs by ELISA; type: functional, organism-based; conditions: Human immunodeficiency virus 1, Bal-R5, 2 h
# [22] = Drug degradation in rat plasma at 1 ug/ml incubated for 1 hr by LC-MS/MS analysis; type: ADME, cell-free; conditions: at 1 µg/mL
# [23] = Biodistribution in Sprague-Dawley rat brain at 1 mg/kg,iv administration measured after 144 hrs by LC-MS/MS analysis; type: ADME, organism-based; conditions: in vivo
# [24] = Proteolytic stability assessed as proteinase K (unknown origin) mediated compound degradation incubated for 4 hrs by LC-MS/MS analysis; type: ADME; conditions: human
# [25] = MRT in Sprague-Dawley rat at 1 mg/kg,iv administration measured upto 9 days by LC-MS/MS analysis; type: ADME, organism-based; conditions: in vivo, time < 9 day
# [26] = Plasma protein binding in rat by LC-MS/MS analysis; type: ADME, cell-free; conditions: read-out: PPB (converted)
# [27] = Plasma protein binding in human by LC-MS/MS analysis; type: ADME, cell-free; conditions: read-out: PPB (converted)
compound,measurement,setting,value
CC(=O)NCC(=O)N[C@@H](Cc1c[nH]c2ccccc12)C(=O)N[C@@H](CCC(=O)O)C(=O)N[C@@H](C)C(=O)N[C@@H](CC(C)C)C(=O)N[C@@H](CCCCN)C(=O)N[C@@H](Cc1ccc(O)cc1)C(=O)N[C@@H](CC(C)C)C(=O)N[C@@]1(C)CCC/C=C\CCC[C@@](C)(C(=O)N[C@@H](Cc2ccc(O)cc2)C(=O)N[C@@H](Cc2c[nH]c3ccccc23)C(N)=O)NC(=O)[C@H](CC(C)C)NC(=O)[C@H](CC(C)C)NC(=O)[C@H](CC(N)=O)NC1=O (Ac-GWEALKYL[S5]NLL[S5]YW-NH2; staple (Z) 9-13),CC50,[1],5870 nM
same,IC50,[2],160 nM
same,selectivity ratio,[3],36.9
CC(=O)NCC(=O)N[C@@H](Cc1c[nH]c2ccccc12)C(=O)N[C@@H](CCC(=O)O)C(=O)N[C@@H](C)C(=O)N[C@@H](CC(C)C)C(=O)N[C@@H](CCCCN)C(=O)N[C@@H](Cc1ccc(O)cc1)C(=O)N[C@@]1(C)CCC/C=C\CCC[C@@](C)(C(=O)N[C@@H](CCC(N)=O)C(=O)N[C@@H](Cc2ccc(O)cc2)C(=O)N[C@@H](Cc2c[nH]c3ccccc23)C(N)=O)NC(=O)[C@H](CC(C)C)NC(=O)[C@H](CC(N)=O)NC(=O)[C@H](Cc2c[nH]c3ccccc23)NC1=O (Ac-GWEALKY[S5]WNL[S5]QYW-NH2; staple (Z) 8-12),CC50,[1],2490 nM
same,IC50,[2],95.5 nM
same,selectivity ratio,[3],26.1
CC(=O)NCC(=O)N[C@@H](Cc1c[nH]c2ccccc12)C(=O)N[C@@H](CCC(=O)O)C(=O)N[C@@H](C)C(=O)N[C@@]1(C)CCC/C=C\CCC[C@@](C)(C(=O)N[C@@H](CC(N)=O)C(=O)N[C@@H](CC(C)C)C(=O)N[C@@H](CC(C)C)C(=O)N[C@@H](CCC(N)=O)C(=O)N[C@@H](Cc2ccc(O)cc2)C(=O)N[C@@H](Cc2c[nH]c3ccccc23)C(N)=O)NC(=O)[C@H](CC(C)C)NC(=O)[C@H](Cc2ccc(O)cc2)NC(=O)[C@H](CCCCN)NC1=O (Ac-GWEA[S5]KYL[S5]NLLQYW-NH2; staple (Z) 5-9),IC50,[2],> 2000 nM
CC(=O)NCC(=O)N[C@@H](Cc1c[nH]c2ccccc12)C(=O)N[C@@H](CCC(=O)O)C(=O)N[C@@]1(C)CCC/C=C\CCC[C@@](C)(C(=O)N[C@@H](Cc2c[nH]c3ccccc23)C(=O)N[C@@H](CC(N)=O)C(=O)N[C@@H](CC(C)C)C(=O)N[C@@H](CC(C)C)C(=O)N[C@@H](CCC(N)=O)C(=O)N[C@@H](Cc2ccc(O)cc2)C(=O)N[C@@H](Cc2c[nH]c3ccccc23)C(N)=O)NC(=O)[C@H](Cc2ccc(O)cc2)NC(=O)[C@H](CCCCN)NC(=O)[C@H](CC(C)C)NC1=O (Ac-GWE[S5]LKY[S5]WNLLQYW-NH2; staple (Z) 4-8),CC50,[1],2310 nM
same,IC50,[2],44.2 nM
same,selectivity ratio,[3],52.5
CC(=O)NCC(=O)N[C@@]1(C)CCC/C=C\CCC[C@@](C)(C(=O)N[C@@H](Cc2ccc(O)cc2)C(=O)N[C@@H](CC(C)C)C(=O)N[C@@H](Cc2c[nH]c3ccccc23)C(=O)N[C@@H](CC(N)=O)C(=O)N[C@@H](CC(C)C)C(=O)N[C@@H](CC(C)C)C(=O)N[C@@H](CCC(N)=O)C(=O)N[C@@H](Cc2ccc(O)cc2)C(=O)N[C@@H](Cc2c[nH]c3ccccc23)C(N)=O)NC(=O)[C@H](CC(C)C)NC(=O)[C@H](C)NC(=O)[C@H](CCC(=O)O)NC1=O (Ac-G[S5]EAL[S5]YLWNLLQYW-NH2; staple (Z) 2-6),CC50,[1],7180 nM
same,IC50,[2],121 nM
same,selectivity ratio,[3],59.3
CC(=O)N[C@@]1(C)CCC/C=C\CCC[C@@](C)(C(=O)N[C@@H](CCCCN)C(=O)N[C@@H](Cc2ccc(O)cc2)C(=O)N[C@@H](CC(C)C)C(=O)N[C@@H](Cc2c[nH]c3ccccc23)C(=O)N[C@@H](CC(N)=O)C(=O)N[C@@H](CC(C)C)C(=O)N[C@@H](CC(C)C)C(=O)N[C@@H](CCC(N)=O)C(=O)N[C@@H](Cc2ccc(O)cc2)C(=O)N[C@@H](Cc2c[nH]c3ccccc23)C(N)=O)NC(=O)[C@H](C)NC(=O)[C@H](CCC(=O)O)NC(=O)[C@H](Cc2c[nH]c3ccccc23)NC1=O (Ac-[S5]WEA[S5]KYLWNLLQYW-NH2; staple (Z) 1-5),CC50,[1],2670 nM
same,IC50,[2],34.2 nM
same,selectivity ratio,[3],78.5
"CC(=O)N[C@@]1(C)CCC/C=C\CCC[C@@](C)(C(=O)N[C@@H](CCCCN)C(=O)N[C@@H](Cc2ccc(O)cc2)C(=O)N[C@@]2(C)CCC/C=C\CCC[C@@](C)(C(=O)N[C@@H](CCC(N)=O)C(=O)N[C@@H](Cc3ccc(O)cc3)C(=O)N[C@@H](Cc3c[nH]c4ccccc34)C(N)=O)NC(=O)[C@H](CC(C)C)NC(=O)[C@H](CC(N)=O)NC(=O)[C@H](Cc3c[nH]c4ccccc34)NC2=O)NC(=O)[C@H](C)NC(=O)[C@H](CCC(=O)O)NC(=O)[C@H](Cc2c[nH]c3ccccc23)NC1=O (Ac-[S5]WEA[S5]KY[S5]WNL[S5]QYW-NH2; staple (Z) 1-5, 8-12)",CC50,[1],4030 nM
same,IC50,[2],124 nM
same,selectivity ratio,[3],32.6
H-GWEALKYLWNLLQYW-OH,half-life,[4],3.8 h
same,remaining at 2 h,[5],32.9%
same,Stability,[6],Unstable
same,Drug uptake,[7],Active
same,CC50,[1],7900 nM
same,EC50,[8],26.1 nM
same,IC50,[9],21.3 nM
same,"remaining at 1 h, 1 ug/ml",[10],80%
same,EC50,[11],41.9 nM
same,clearance,[12],0.158 mL/min/kg
same,EC50,[13],371 nM
same,Drug uptake,[14],Not Active
same,IC50,[2],130 nM
same,selectivity ratio,[3],60.9
same,EC50,[15],30.5 nM
same,AUC(0-t) at 216 h,[16],114 µg·h/mL
same,Vd,[17],0.0527 L/kg
same,IC50,[18],142 nM
same,EC50,[19],98 nM
same,IC50,[20],20.1 nM
same,EC50,[21],25300 nM
same,Stability,[22],Stable
same,Drug uptake,[23],Not Active
same,Stability,[24],Unstable
same,MRT,[25],5.4 h
enfuvirtide,fraction unbound,[26],0.041
same,EC50,[8],> 4000 nM
same,IC50,[2],48.6 nM
same,EC50,[19],> 4000 nM
same,EC50,[21],> 4000 nM
same,fraction unbound,[27],0.187
